Test results published in publication PMC6518791, “Gluconate suppresses seizure activity in developing brains by inhibiting CLC-3 chloride channels” (Molecular Brain, 2019).

Biological target: T1, CLC-3 Cl^− channels (neonatal mouse hippocampal CA3 pyramidal neurons) (Mus musculus, UniProt P51791)
T1 construct: gene Clcn3; native channel, CA3 pyramidal neurons in hippocampal slices (P10-12); current largely absent in Clcn3-/- neurons
T1 sequence (P51791 1-818): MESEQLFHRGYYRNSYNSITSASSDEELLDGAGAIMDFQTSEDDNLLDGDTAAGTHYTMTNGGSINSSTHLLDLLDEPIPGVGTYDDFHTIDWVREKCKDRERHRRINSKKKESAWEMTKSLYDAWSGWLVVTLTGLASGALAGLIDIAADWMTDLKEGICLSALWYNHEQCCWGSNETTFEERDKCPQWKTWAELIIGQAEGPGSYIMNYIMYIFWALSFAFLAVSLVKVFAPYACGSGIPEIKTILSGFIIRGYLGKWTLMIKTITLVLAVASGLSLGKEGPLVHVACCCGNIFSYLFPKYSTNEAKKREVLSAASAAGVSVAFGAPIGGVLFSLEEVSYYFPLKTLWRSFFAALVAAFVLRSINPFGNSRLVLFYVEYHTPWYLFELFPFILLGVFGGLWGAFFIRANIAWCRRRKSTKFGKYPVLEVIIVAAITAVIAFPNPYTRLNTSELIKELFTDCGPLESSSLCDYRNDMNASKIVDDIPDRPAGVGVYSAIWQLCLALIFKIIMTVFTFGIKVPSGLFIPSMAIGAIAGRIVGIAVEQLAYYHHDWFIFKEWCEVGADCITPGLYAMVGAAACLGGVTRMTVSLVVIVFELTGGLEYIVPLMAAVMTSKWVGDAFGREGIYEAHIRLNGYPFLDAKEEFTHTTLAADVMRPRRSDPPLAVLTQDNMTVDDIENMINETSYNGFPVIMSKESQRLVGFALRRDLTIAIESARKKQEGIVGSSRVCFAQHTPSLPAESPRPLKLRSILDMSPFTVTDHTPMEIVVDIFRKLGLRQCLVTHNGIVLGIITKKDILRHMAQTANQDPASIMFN
Assay: whole-cell patch clamp, voltage-dependent Cl- current in brain slices
Conditions: total neuronal Cl- current, no knockout control told

- IC50: ~6.2 mM
SMILES: C[C@@H](O)CC(=O)O [β-HB]
